Data from PubChem BioAssay AID248 (DTP/NCI, 2004).
Values joined by “and” are separate entries in the source; they are usually repeats but may differ in a detail not shown here. Equal values may be shown once. Inconclusive results and toxic doses are left out.

Tested on: L1210 leukemia ip in BDF1 mice, survival T/C
Assay: NCI In Vivo Anticancer Drug Screen. Data for tumor model L1210 Leukemia (intraperitoneal) in B6D2F1 (BDF1) mice
Conditions: endpoint: mean survival time, higher = longer survival
Outline: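 Transplanted-tumor mice were given test agent; controls received vehicle only. Survival readings from the two groups were divided (treated over control).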

O=C(Nc1ccc(C2=NCCN2)cc1)c1ccc(C(=O)Nc2ccc(C3=NCCN3)cc2)cc1
T/C (dose: 0.62 mg/kg/injection, schedule: Q#A X Z (ip), vehicle: saline): 114 % of control | T/C (dose: 0.63 mg/kg/injection, schedule: Q01DX Z (sc), vehicle: saline): 104 % of control | T/C (dose: 1.25 mg/kg/injection, schedule: Q01DX Z (ip), vehicle: other): 287 % of control | T/C (dose: 1.25 mg/kg/injection, schedule: Q01DX Z (sc), vehicle: saline): 101 % of control | T/C (dose: 1.87 mg/kg/injection, schedule: Q01DX Z (ip), vehicle: carboxymethylcellulose (CMC)): 112 % of control | T/C (dose: 1.88 mg/kg/injection, schedule: Q03DX Z (ip), vehicle: saline): 103 % of control | T/C (dose: 2.5 mg/kg/injection, schedule: Q01DX Z (ip), vehicle: other): 158 % of control | T/C (dose: 2.5 mg/kg/injection, schedule: Q01DX Z (sc), vehicle: saline): 104 % of control | T/C (dose: 3.75 mg/kg/injection, schedule: Q01DX Z (ip), vehicle: carboxymethylcellulose (CMC)): 121 % of control | T/C (dose: 3.75 mg/kg/injection, schedule: Q03DX Z (ip), vehicle: saline): 114 % of control | T/C (dose: 4.4 mg/kg/injection, schedule: Q01DX001 (ip), vehicle: saline): 103 % of control | T/C (dose: 4.4 mg/kg/injection, schedule: Q07DX Z (ip), vehicle: saline): 103 % of control | T/C (dose: 5.0 mg/kg/injection, schedule: Q01DX005 (iv), vehicle: saline): 102 % of control | T/C (dose: 5.0 mg/kg/injection, schedule: Q01DX Z (ip), vehicle: acid diluted with saline): 243 % of control | T/C (dose: 5.0 mg/kg/injection, schedule: Q01DX Z (ip), vehicle: other): 179 % of control | T/C (dose: 5.0 mg/kg/injection, schedule: Q01DX Z (sc), vehicle: saline): 101 % of control | T/C (dose: 5.0 mg/kg/injection, schedule: Q#A X Z (ip), vehicle: saline): 194 % of control | T/C (dose: 7.5 mg/kg/injection, schedule: Q03DX Z (ip), vehicle: saline): 115 % of control | T/C (dose: 8.8 mg/kg/injection, schedule: Q01DX001 (ip), vehicle: saline): 97 % of control and 112 % of control | T/C (dose: 8.8 mg/kg/injection, schedule: Q07DX Z (ip), vehicle: saline): 105 % of control | T/C (dose: 10.0 mg/kg/injection, schedule: Q01DX005 (iv), vehicle: saline): 103 % of control | T/C (dose: 10.0 mg/kg/injection, schedule: Q01DX Z (ip), vehicle: acid diluted with saline): 205 % of control | T/C (dose: 10.0 mg/kg/injection, schedule: Q01DX Z (iv), vehicle: acid diluted with saline): 123 % of control | T/C (dose: 10.0 mg/kg/injection, schedule: Q01DX Z (sc), vehicle: acid diluted with saline): 175 % of control | T/C (dose: 10.0 mg/kg/injection, schedule: Q#A X Z (ip), vehicle: saline): 291 % of control | T/C (dose: 15.0 mg/kg/injection, schedule: Q01DX Z (ip), vehicle: carboxymethylcellulose (CMC)): 168 % of control and 269 % of control and 197 % of control | T/C (dose: 15.6 mg/kg/injection, schedule: Q01DX Z (sc), vehicle: other): 181 % of control | T/C (dose: 17.5 mg/kg/injection, schedule: Q01DX001 (ip), vehicle: saline): 112 % of control and 264 % of control | T/C (dose: 20.0 mg/kg/injection, schedule: Q01DX005 (iv), vehicle: saline): 115 % of control | T/C (dose: 20.0 mg/kg/injection, schedule: Q01DX Z (ip), vehicle: acid diluted with saline): 158 % of control | T/C (dose: 20.0 mg/kg/injection, schedule: Q01DX Z (ip), vehicle: saline): 316 % of control | T/C (dose: 20.0 mg/kg/injection, schedule: Q01DX Z (sc), vehicle: acid diluted with saline): 165 % of control | T/C (dose: 20.0 mg/kg/injection, schedule: Q#A X Z (ip), vehicle: saline): 178 % of control | T/C (dose: 30.0 mg/kg/injection, schedule: Q01DX Z (ip), vehicle: acid diluted with saline): 182 % of control | T/C (dose: 30.0 mg/kg/injection, schedule: Q01DX Z (ip), vehicle: carboxymethylcellulose (CMC)): 320 % of control | T/C (dose: 30.0 mg/kg/injection, schedule: Q03DX Z (ip), vehicle: saline): 200 % of control | T/C (dose: 31.3 mg/kg/injection, schedule: Q01DX004 (im), vehicle: olive oil, sesame oil, peanut oil): 97 % of control | T/C (dose: 31.3 mg/kg/injection, schedule: Q01DX004 (im), vehicle: saline): 104 % of control | T/C (dose: 31.3 mg/kg/injection, schedule: Q01DX Z (ip), vehicle: other): 112 % of control | T/C (dose: 31.3 mg/kg/injection, schedule: Q01DX Z (sc), vehicle: other): 195 % of control | T/C (dose: 35.0 mg/kg/injection, schedule: Q07DX Z (ip), vehicle: saline): 160 % of control | T/C (dose: 40.0 mg/kg/injection, schedule: Q01DX Z (ip), vehicle: saline): 348 % of control | T/C (dose: 40.0 mg/kg/injection, schedule: Q#A X Z (ip), vehicle: saline): 210 % of control | T/C (dose: 60.0 mg/kg/injection, schedule: Q01DX Z (ip), vehicle: acid diluted with saline): 153 % of control | T/C (dose: 60.0 mg/kg/injection, schedule: Q01DX Z (ip), vehicle: carboxymethylcellulose (CMC)): 246 % of control | T/C (dose: 60.0 mg/kg/injection, schedule: Q03DX Z (ip), vehicle: saline): 304 % of control | T/C (dose: 62.5 mg/kg/injection, schedule: Q01DX004 (im), vehicle: olive oil, sesame oil, peanut oil): 100 % of control | T/C (dose: 62.5 mg/kg/injection, schedule: Q01DX Z (ip), vehicle: other): 111 % of control | T/C (dose: 62.5 mg/kg/injection, schedule: Q01DX Z (sc), vehicle: other): 158 % of control | T/C (dose: 70.0 mg/kg/injection, schedule: Q01DX001 (ip), vehicle: saline): 156 % of control and 161 % of control | T/C (dose: 70.0 mg/kg/injection, schedule: Q07DX Z (ip), vehicle: saline): 205 % of control | T/C (dose: 80.0 mg/kg/injection, schedule: Q01DX Z (ip), vehicle: saline): 183 % of control | T/C (dose: 80.0 mg/kg/injection, schedule: Q#A X Z (ip), vehicle: saline): 210 % of control | T/C (dose: 120.0 mg/kg/injection, schedule: Q01DX Z (ip), vehicle: acid diluted with saline): 176 % of control | T/C (dose: 120.0 mg/kg/injection, schedule: Q01DX Z (ip), vehicle: carboxymethylcellulose (CMC)): 115 % of control and 204 % of control | T/C (dose: 120.0 mg/kg/injection, schedule: Q03DX Z (ip), vehicle: saline): 243 % of control and 252 % of control | T/C (dose: 125.0 mg/kg/injection, schedule: Q01DX004 (im), vehicle: olive oil, sesame oil, peanut oil): 100 % of control | T/C (dose: 125.0 mg/kg/injection, schedule: Q01DX Z (ip), vehicle: other): 97 % of control | T/C (dose: 125.0 mg/kg/injection, schedule: Q01DX Z (sc), vehicle: other): 161 % of control | T/C (dose: 140.0 mg/kg/injection, schedule: Q01DX001 (ip), vehicle: saline): 223 % of control | T/C (dose: 140.0 mg/kg/injection, schedule: Q07DX Z (ip), vehicle: saline): 282 % of control | T/C (dose: 160.0 mg/kg/injection, schedule: Q01DX Z (ip), vehicle: saline): 174 % of control | T/C (dose: 160.0 mg/kg/injection, schedule: Q#A X Z (ip), vehicle: saline): 176 % of control | T/C (dose: 250.0 mg/kg/injection, schedule: Q01DX004 (im), vehicle: olive oil, sesame oil, peanut oil): 121 % of control | T/C (dose: 250.0 mg/kg/injection, schedule: Q01DX004 (im), vehicle: saline): 204 % of control and 208 % of control | T/C (dose: 250.0 mg/kg/injection, schedule: Q01DX Z (sc), vehicle: other): 168 % of control | T/C (dose: 250.0 mg/kg/injection, schedule: Q01DX Z (sc), vehicle: saline): 217 % of control | T/C (dose: 280.0 mg/kg/injection, schedule: Q07DX Z (ip), vehicle: saline): 250 % of control and 327 % of control | T/C (dose: 320.0 mg/kg/injection, schedule: Q01DX Z (ip), vehicle: saline): 162 % of control | T/C (dose: 480.0 mg/kg/injection, schedule: Q03DX Z (ip), vehicle: saline): 194 % of control | T/C (dose: 500.0 mg/kg/injection, schedule: Q01DX004 (im), vehicle: saline): 262 % of control | T/C (dose: 500.0 mg/kg/injection, schedule: Q01DX Z (sc), vehicle: saline): 195 % of control | T/C (dose: 560.0 mg/kg/injection, schedule: Q01DX001 (ip), vehicle: saline): 184 % of control and 210 % of control | T/C (dose: 560.0 mg/kg/injection, schedule: Q07DX Z (ip), vehicle: saline): 261 % of control | T/C (dose: 640.0 mg/kg/injection, schedule: Q01DX Z (ip), vehicle: saline): 124 % of control | T/C (dose: 750.0 mg/kg/injection, schedule: Q01DX Z (sc), vehicle: saline): 183 % of control and 290 % of control | T/C (dose: 960.0 mg/kg/injection, schedule: Q03DX Z (ip), vehicle: saline): 164 % of control | T/C (dose: 1000.0 mg/kg/injection, schedule: Q01DX004 (im), vehicle: saline): 267 % of control | T/C (dose: 1112.0 mg/kg/injection, schedule: Q01DX001 (ip), vehicle: saline): 157 % of control | T/C (dose: 1500.0 mg/kg/injection, schedule: Q01DX Z (sc), vehicle: saline): 215 % of control | T/C (dose: 18.8 micrograms/kg/injection, schedule: Q01DX Z (ip), vehicle: saline): 96 % of control | T/C (dose: 37.5 micrograms/kg/injection, schedule: Q01DX Z (ip), vehicle: saline): 96 % of control | T/C (dose: 75.0 micrograms/kg/injection, schedule: Q01DX Z (ip), vehicle: saline): 100 % of control | T/C (dose: 150.0 micrograms/kg/injection, schedule: Q01DX Z (ip), vehicle: saline): 94 % of control | T/C (dose: 230.0 micrograms/kg/injection, schedule: Q01DX Z (ip), vehicle: carboxymethylcellulose (CMC)): 98 % of control | T/C (dose: 460.0 micrograms/kg/injection, schedule: Q01DX Z (ip), vehicle: carboxymethylcellulose (CMC)): 118 % of control | T/C (dose: 930.0 micrograms/kg/injection, schedule: Q01DX Z (ip), vehicle: carboxymethylcellulose (CMC)): 113 % of control
